Test results taken from US9642834B2, “Composition comprising alpha-lipoic acid and honokiol for treating neuropathies” (Giellepi S.p.A., priority 2012, dated 2017).
“Also recorded” adds a separate entry of the source.

Legend:
[1] = system: primary cell culture of rat cortical neurons; experiment: Morphological evaluation of neurite length (MAP2 staining) in primary cultures; format: cell-based; details: for Increase respect to control (culture A): neurite length relative to control culture A; for Increase respect to control (culture A) / Increase of average neurite length: overall concentration 10 μM (culture B: 40 ng mL−1 bFGF), 6 days incubation; for Increase of average neurite length: control culture A 280; for Effect on neurite extension/length (in words): overall concentration 10 μM, compared to control culture A
Protocol: Eight primary cellular cultures were prepared as described in Abe K et al. “Effects of recombinant human basic fibroblast growth factor and its modified protein CS23 on survival of primary cultured neurons from various regions of fetal rat brain.”, Jpn J Pharmacol 1990, 53 (2): 221-7. All operations were carried out under sterile conditions.
Neuronal cells were separated from cerebral hemispheres of rat fetuses of 18 days (Japan SLC, Inc.) and suspended in 10% FBS/MEM, then seeded at 9000 cells cm^−2 in poly-L-lysine plates.
After 24 hours, the culture medium was replaced with a serum-free medium, specific for the growth of neurons (Neurobasal Medium) supplemented with B27.
After 6 days incubation, the cells of the eight cultures were fixed with 4% formaldehyde.
The eight cultures were then evaluated regarding the length of neurites at the microscopic level. The neurons were subjected to immunohistochemical staining for the microtubule-associated protein-2 (MAP2) according to the histochemical method for the length of neurites, as described in Fukuyama Y et al. “Neurotrophic activity of honokiol on the cultures of fetal rat cortical neurons” Bioorg. Med Chem. Lett 12, 1163-66 (2002). The length of the most extended neurite of the whole cellular body was measured and calculated by using software programs Lumina Vision and Mac-SCOPE, according to the above-mentioned method described in Y. Fukuyama et al. (2002). The morphometric analyses were performed by measuring the length of the longest neurite from each neuron using Lumina Vision and Mac-Scope software (Yoshiyasu Fukuyama et al. 2002).

[2] = system: symptoms of diabetic polyneuropathy and sciatic pain; details: cited from earlier work
[3] = system: cultured rat cortical neurons; details: primary cultures; cited from earlier work

| Compound | Increase respect to control (culture A) [1] | Increase of average neurite length [1] | Effect on neurite extension/length (in words) [1] | Side effects such as nausea, vomiting and dizziness ([2]; daily doses 600, 1200 and 1800 mg) | Daily dose providing the best risk/benefit ratio ([2]; treatment of symptoms of diabetic polyneuropathy and sciatic pain) [mg] | Neurite growth and neuron survival (in words) [3] |
| --- | --- | --- | --- | --- | --- | --- |
| O=C(O)CCCCC1CCSS1 (stereo not drawn) [Culture G, alpha-lipoic acid] | 1.01 | 285 (p = ns) μm | stimulated neurite growth in a negligible way | dose-dependent increase of the side effects | 600 | – |
| C=CCc1ccc(O)c(-c2ccc(O)c(CC=C)c2)c1 [Culture H, honokiol] | 1.02 | 287 (p = ns) μm | stimulated neurite growth in a negligible way | – | – | able to promote neurite growth; also recorded: capable of increasing the survival and development of neurons |
| Culture B: Human recombinant fibroblast growth factors (bFGF), 40 ng mL−1, supplied by Upstate Biotechnology | 1.05 | 295 (p = ns) μm | – | – | – | – |
